Experimental data taken from ChEMBL document CHEMBL3632588 (Medchemcomm, 2015).

Assays:
[1] = Cytotoxicity in mouse NMuMG cells assessed as cell growth at 20 uM after 72 hrs by colorimetry; assay type: cell-based; settings: read-out: Activity
[2] = Antiproliferative activity against mouse B16F0 cells after 72 hrs by colorimetry; assay type: functional, cell-based; settings: B16F0, 72 h
MCF7 [3] = assay: Antiproliferative activity against human MCF7 cells after 72 hrs by colorimetry; assay type: functional, cell-based; settings: MCF7, 72 h
[4] = Antiproliferative activity against mouse LM3 cells assessed as cell growth at 20 uM after 72 hrs by colorimetry; assay type: functional; settings: LM3, 72 h, read-out: Activity
HeLa [5] = assay: Ratio of IC50 for mouse NMuMG cells to IC50 for human HeLa cells
[6] = Ratio of IC50 for mouse NMuMG cells to IC50 for mouse B16F0 cells
HeLa [7] = assay: Antiproliferative activity against human HeLa cells after 72 hrs by colorimetry; assay type: functional, cell-based
MCF7 [8] = assay: Antiproliferative activity against human MCF7 cells assessed as cell growth at 20 uM after 72 hrs by colorimetry; assay type: functional; settings: MCF7, 72 h, read-out: Activity
[9] = Antiproliferative activity against mouse LM3 cells after 72 hrs by colorimetry; assay type: functional, cell-based; settings: LM3, 72 h
[10] = Ratio of IC50 for mouse NMuMG cells to IC50 for mouse […] cells
MCF7 [11] = assay: Ratio of IC50 for mouse NMuMG cells to IC50 for human MCF7 cells
HeLa [12] = assay: Antiproliferative activity against human HeLa cells assessed as cell growth at 20 uM after 72 hrs by colorimetry; assay type: functional; settings: read-out: Activity
[13] = Antiproliferative activity against mouse B16F0 cells assessed as cell growth at 20 uM after 72 hrs by colorimetry; assay type: functional; settings: B16F0, 72 h, read-out: Activity
[14] = Cytotoxicity in mouse NMuMG cells after 72 hrs by colorimetry; assay type: cell-based

COC(=O)[C@@H]1N2C(=O)C(Br)(Br)[C@H]2S(=O)(=O)[C@@]1(C)CCl
viability at 72 h, 20 µM [1]: 35%

COC(=O)[C@@H]1N2C(=O)C(Br)(Br)[C@H]2S[C@@]1(C)CSc1nc(-c2ccccc2)c(-c2ccccc2)o1
IC50 [2]: 11 µM
IC50 (MCF7 [3]): 18 µM
growth at 20 µM [4]: 35%
viability at 72 h, 20 µM [1]: 55%
Ratio IC50 (HeLa [5]): 4.4
Ratio IC50 [6]: 2.8
IC50 (HeLa [7]): 7 µM
growth at 20 µM (MCF7 [8]): 27%
IC50 [9]: 14 µM
Ratio IC50 [10]: 2.2
Ratio IC50 (MCF7 [11]): 1.7
growth at 20 µM (HeLa [12]): 7%
growth at 20 µM [13]: 38%
IC50 [14]: 31 µM

COC(=O)[C@@H]1N2C(=O)[C@H](Cl)[C@H]2S[C@@]1(C)CSc1nc2ccccc2s1
IC50 [2]: 18 µM
growth at 20 µM [4]: 55%
viability at 72 h, 20 µM [1]: 55%
Ratio IC50 (HeLa [5]): 2
Ratio IC50 [6]: 2
IC50 (HeLa [7]): 18 µM
growth at 20 µM (MCF7 [8]): 66%
IC50 [9]: 20 µM
Ratio IC50 [10]: 1.8
growth at 20 µM (HeLa [12]): 44%
growth at 20 µM [13]: 48%
IC50 [14]: 36 µM

COC(=O)[C@@H]1N2C(=O)[C@H](Cl)[C@H]2S[C@@]1(C)CSc1nc(-c2ccccc2)c(-c2ccccc2)o1
growth at 20 µM [4]: 65%
viability at 72 h, 20 µM [1]: 55%
Ratio IC50 (HeLa [5]): 2.5
IC50 (HeLa [7]): 13 µM
growth at 20 µM (MCF7 [8]): 87%
growth at 20 µM (HeLa [12]): 27%
growth at 20 µM [13]: 65%
IC50 [14]: 32 µM

COC(=O)[C@@H]1N2C(=O)[C@H](Cl)[C@H]2S[C@@]1(C)CSc1nc2ccccc2o1
growth at 20 µM [4]: 87%
viability at 72 h, 20 µM [1]: 65%
growth at 20 µM (MCF7 [8]): 84%
growth at 20 µM (HeLa [12]): 68%
growth at 20 µM [13]: 68%

CCOc1ccc2nc(SC[C@]3(C)S[C@@H]4[C@@H](Cl)C(=O)N4[C@H]3C(=O)OC)sc2c1
IC50 [2]: 27 µM
growth at 20 µM [4]: 49%
viability at 72 h, 20 µM [1]: 64%
Ratio IC50 (HeLa [5]): 1.8
Ratio IC50 [6]: 1.6
IC50 (HeLa [7]): 24 µM
growth at 20 µM (MCF7 [8]): 65%
IC50 [9]: 24 µM
Ratio IC50 [10]: 1.8
growth at 20 µM (HeLa [12]): 56%
growth at 20 µM [13]: 52%
IC50 [14]: 43 µM

COC(=O)[C@@H]1N2C(=O)[C@H](Cl)[C@H]2S[C@@]1(C)CSC1=NCCS1
growth at 20 µM [4]: 54%
viability at 72 h, 20 µM [1]: 65%
Ratio IC50 (HeLa [5]): 2.2
IC50 (HeLa [7]): 19 µM
growth at 20 µM (MCF7 [8]): 87%
IC50 [9]: 20 µM
Ratio IC50 [10]: 2
growth at 20 µM (HeLa [12]): 48%
growth at 20 µM [13]: 71%
IC50 [14]: 41 µM

CCOc1ccc2nc(SC[C@@]3(C)[C@H](C(=O)OC)N4C(=O)[C@H](Cl)[C@H]4S3(=O)=O)sc2c1
viability at 72 h, 20 µM [1]: 8%
